SMILES strings stand for the structures.

Assay [1] deals with rat aorta. Put plainly: Vasodilation effects on isolated blood vessels of rats (methoxamine-constricted aortic rings). It is filed as cell-based. The conditions noted are these: isolated rat aorta constricted with methoxamine (3 uM); read-out: Vasodilation Activity (in Vitro, rat aorta) (IC50).
The subject of assay [2] is ischemic heart models of rats. The assay can be described thus: Heart protective (anti-ischemic) activity in ischemic heart models of anesthetized rats. Format: in vivo. The conditions noted are these: 45 min occlusion, 90 min reperfusion. Here is the method:
Male rats (350-450 g, obtained from the Experimental Animal Team of the Korea Research Institute of Chemical Technology) were anesthetized by the intraperitoneal injection of pentobarbital at a dose of 75 mg/kg. After trachetomy, the rats were rendered to respire artificially at a rate of 60/min with a stroke volume of 10 ml/kg. Cannulars were inserted into the fermoral vein and the fermoral artery and used for drug administration and blood pressure measurement, respectively.
In the ischemic myocardium damage models, the body temperature has an important influence on the results. To avoid the change in the body temperature, a body temperature measuring probe was inserted into the rectum of each rat and the body temperature was constantly kept at 37 °C with the aid of a homeothermic blanket control unit.
Afterwards, during testing, a continuous measurement was made of the mean arterial blood pressures and heart rates from the rats. For the measurement of the blood pressure, a pressure transducer, such as that manufactured by Grass Ins., MA, U.S.A., identified as Model Statham P23XL, was used. The heart rate was measured by a tachometer, such as that manufactured by Gould Inc., OH, U.S.A., identified as Biotachometer. In addition, all of the changes occurring were continuously recorded through the Gould 2000 chart recorder, manufactured by Gould Inc.
The left coronary artery was occluded according to the Selye H. method as follows. The rats underwent a left thoracotomy operation for partial opening of the chest and the right-side chest was pressurized by the middle finger of the left hand to push the heart out. Immediately after the left anterior descending coronary artery hereinafter referred to as (LAD) was carefully stitched using a suture needle with 5-0 silk ligature, the heart was then repositioned in the thoracic cavity while both ends of the ligature were situated outside. The opposite ligature ends were passed through a PE tube (PE100, 2.5 cm) and allowed to stand loose for 20 min for stabilization. Via the cannula inserted into the femoral vein, vehicles or drugs were administered into the rats which were rendered to stand for 30 min in order to sufficiently elicit the efficacies of the drugs. BMS-180448 was used as a control drug and the i.v.administration dose was 0.3 mg/kg for all test drugs of interest and the control drug.
Next, the PE tube which had the doubled strands of the ligature passed therethrough was pushed toward the heart and then, set upright by tightly pulling end regions of the ligature with a hemostatic pincette while pressing the coronary artery. The PE tube was allowed to stand for 45 min for the occlusion of the coronary artery, followed by the removal of the hemostatic pincette and then, by the reperfusion for 90 min.
After the reocclusion of the coronary artery in accordance with the above procedure, the rats were administered with 2 ml of a 1% Evans blue through an intravenous route. Subsequently, an excess of pentobarbital was intravenously injected to kill the rats, after which the heart was removed and then, deprived of the right ventricle and both atria. The left ventricle was cut horizontally to the heart apex into 5 or 6 slices which were weighed. From the surface of each slice, images were input with the aid of a Hi-scope into a computer installed with an image analyzing program (Image Pro Plus). From the images input into the computer, the area of the normal blood stream tissue region which appeared blue in a computer monitor and the area which appeared colorless were measured. The percentage of the colorless area to the total area of each slice was calculated and multiplied by the weight of each slice to determine the area at risk (AAR) of each slice. […]

Assay [3] deals with HUVEC. Put plainly: Inhibition of HUVEC tube formation on Matrigel. Format: cell-based, Human. Set-up: key: -: no effect; +/-: week effect; +: moderate effect; ++: strong effect. As to the method: HUVEC (Human umbilical vein endothelial cells, ATCC CRL-1730) were cultured, and tubulogenesis was induced in vascular endothelial cells by plating them onto the surface of Matrigel for several hours. The effects on tube formation of the test compounds were compared with the vehicle treated controls, then confirmed their in vitro anti-angiogenic effect indirectly.

Assay [4] concerns newborn rats. Put plainly: Protection against hypoxic brain injury in newborn rats (proton MRS). It is filed as in vivo. Conditions: 50mg/Kg intraperitoneally 1 hr before hypoxia; proton MRS 1 day after injury. The text has this: Focal, hypoxic brain injury model in newborn rats are being most frequently used to study infant asphyxia, because whose maturity of brain is similar to that of human infant, and it is easy to get enough number of animals required for the determination of effects. It was reported that the lipid peak was increased in MRS (magnetic resonamce spectroscopy) by ischemic neuronal cell injury due to the destruction of cell membrane including blood-brain barrier [A. Bizzi et. al., Magnetic Resonance Imagin 14 581-592 (1996)], and also the concentration of lipid and apotosis are closely correlated to apotosis [Van der A. Toorn et al., Magnetic Resonamce in Medicine, 36 , 914-922 (1996)]. N-Acetylaspartae (NAA) and creatine (Cr) are markers of neuronal cells. Then it was confirmed that the value of lipid/NAA (N-acetylaspartae) and lipid/Cr (creatine) are correlated with the morphological change and severity of apoptosis on hypoxic brain damage.
New born rats (within 7 days, 10-15 g) were placed in hypoxic chamber for 2 hr to induce hypoxia, and test compounds were intraperitoneally injected before 1 hr of hypoxia. Proton MRS was obtained at 1 day after brain injury, then the value of lipid/NAA and lipid/Cr were determined.

As for `COC(OC)[C@@]1(C)Oc2ccc([N+](=O)[O-])cc2[C@H](NC(=NC#N)NCc2ccccc2)[C@H]1O` [Example 24, (2S, 3R, 4S)-N''-cyano-N-(6-nitro-3,4-dihydro-3-hydroxy-2-methyl-2-dimethoxymethyl-2H-benzopyran-4-yl)-N'-benzylguanidine], the IC50 (usually the concentration at which inhibition is half-maximal) in assay [1] worked out at 9.78 µM. For the same molecule, the “Anti-ischemic Activity (in vivo, rats) (0.3 mg/kg i.v.) IZ/AAR (%)” value (“Anti-ischemic Activity (in vivo, rats) … (%)” for short) in assay [2] was 48.48%. Also, the “Inhibitory Effects on Tube Formation” value in assay [3] (100 uM) is reported as “+”.
`COC(OC)[C@@]1(C)Oc2ccc([N+](=O)[O-])cc2[C@@H](NC(=NC#N)NCc2ccccc2)[C@@H]1O` [Example 25, (2S, 3S, 4R)-N''-cyano-N-(6-nitro-3,4-dihydro-3-hydroxy-2-methyl-2-dimethoxymethyl-2H-benzopyran-4-yl)-N'-benzylguanidine]: the IC50 in assay [1] was above 30 µM. Besides, the “Anti-ischemic Activity (in vivo, rats) … (%)” value in assay [2] turned out to be 48.55%.
With `COC(OC)[C@@]1(C)Oc2ccc([N+](=O)[O-])cc2[C@H](NC(=NC#N)Nc2ccccc2Cl)[C@H]1O` [Example 32, (2S, 3R, 4S)-N''-cyano-N-(6-nitro-3,4-dihydro-3-hydroxy-2-methyl-2-dimethoxymethyl-2H-benzopyran-4-yl)-N'-(2-chlorophenyl)guanidine], in assay [1], the IC50 came to 3.57 µM. In assay [2], the “Anti-ischemic Activity (in vivo, rats) … (%)” value came to 44.72%.
For `COC(OC)[C@@]1(C)Oc2ccc([N+](=O)[O-])cc2[C@@H](NC(=NC#N)NCc2ccccc2)[C@@H]1OC(C)=O` [Example 38, (2S, 3S, 4R)-N''-cyano-N-(6-nitro-3,4-dihydro-3-acetoxy-2-methyl-2-dimethoxymethyl-2H-benzopyran-4-yl)-N'-benzylguanidine], the IC50 in assay [1] came out at 24.5 µM. For the same molecule, the “Anti-ischemic Activity (in vivo, rats) … (%)” value in assay [2] came out at 51.13%.
Take `COC(OC)[C@@]1(C)Oc2ccc(N)cc2[C@@H](NC(=NC#N)NCc2ccccc2)[C@@H]1O` [Example 40, (2S, 3S, 4R)-N''-cyano-N-(6 - amino-3,4-dihydro-3-hydroxy-2-methyl-2-dimethoxymethyl-2H-benzopyran-4-yl)-N'-benzylguanidine]: the half-maximal inhibitory concentration (IC50) in assay [1] is above 30 µM. In assay [2], the “Anti-ischemic Activity (in vivo, rats) … (%)” value is 30.25%. Also, the results for the “Inhibitory Effects on Tube Formation” value in assay [3] (10 uM) and in assay [3] (100 uM) were “+” and “++”, respectively. In assay [4], the Lipid/Cr worked out at 2.33. In assay [4], the Lipid/NAA stood at 2.51.

The record behind these values is patent EP1228058B1, “BENZOPYRANYL GUANIDINE DERIVATIVES, PROCESS FOR PREPARATION THEREOF, AND PHARMACEUTICAL COMPOSITIONS CONTAINING THEM” (Dongbu Hannong Chemical Co., Ltd., priority 1999, dated 2001).
